Source: patent publication US20040071633A1, “Method for determining efficacy of reverse cholesterol transport enhancing agents” (priority 2003, published 2004)
pEC50: −log10 of the molar value.

Legend:
[1] = test system: THP-1 cells; experiment: cholesterol efflux from [3H]cholesterol-labeled THP-1 cells mediated by sCD14 or apo A-I; assay type: cell-based
Method: FIGS. 1a, 1b and 1c are graphs showing the effect of sCD14 concentration on cholesterol efflux. [^3H]cholesterol-labeled THP-1 cells were incubated with the indicated concentration of sCD14 (closed circles), apo A-I (open circles) or HSA (inverted triangles) in RPMI for 30 min (a and b) or for 20 h (c). Each point represents the mean of three measurements±SD (a) or the average of duplicate samples±range (b and c). Data are representative of five independent experiments with similar results.
[^3H]cholesterol-labeled THP-1 cells were incubated with increasing concentrations of sCD14, apo A-I or the control protein, HSA, and radioactivity in the supernatant was determined. The initial rate of cholesterol efflux was explored in studies of short duration (30 min, FIG. 1a and with extended dose response in FIG. 1b). […] Because of the linear dose-dependence of sCD14-mediated efflux and because no other cholesterol acceptor was present in the incubation, these observations appear most consistent with a direct, low affinity binding of cholesterol to sCD14.
The maximal extent of cholesterol efflux mediated by apo A-I and sCD14 was explored in parallel experiments of 24 hr duration (FIG. 1c). […] However, because of the limiting concentrations of sCD14 in plasma (3-5 μg/ml) and the far greater concentration of apo A-I (˜1 mg/ml), sCD14 per se is unlikely to be a significant reservoir or destination for the cholesterol in plasma.

[2] = test system: THP-1 cells; experiment: sCD14 acceleration of cholesterol efflux from [3H]cholesterol-labeled THP-1 cells to apo A-I, HDL3 or HDL; assay type: cell-based; details: sCD14 5 μg/ml alone or apo A-I 100 μg/ml alone
Method: FIG. 2 is a graph showing the kinetics of cholesterol efflux by sCD14 and/or apo A-I. [^3H]cholesterol-labeled THP-1 cells were incubated with or without 5 μg/ml of sCD14 and/or 100 μg/ml of apo A-I in RPMI. Background efflux without proteins at each time was measured and subtracted from other data point. Closed circles, sCD14; open circles, apo A-I; inverted triangles, sCD14 and apo A-L. Data represents the mean of three measurements±SD. The data were repeated with similar results.
FIG. 3 is a graph showing the dose dependent additive effect of sCD14 for cholesterol efflux to apo A-I but not to HDL. [^3 H]cholesterol-labeled TBP-1 cells were incubated in buffer containing 50 μg/ml of apo A-I, HDL3 or HDL with or without the indicated concentration of sCD14 for 1 h. Open bar, without sCD14; hatched bar, 10 μg/ml sCD14; black bar, 25 μg/ml sCD14. Background efflux without proteins at each time was measured and subtracted from other data point. Asterisks show statistical significance compared to the data without sCD14: *, p<0.01; **, p<0.001. Data are representative of three independent experiments with similar results.
The following experiment was performed to determine if sCD14 could facilitate the efflux of cholesterol to its major acceptor, apo A-I (FIG. 2). […]

[3] = test system: ABCA1 mRNA; experiment: ABCA1 mRNA expression by real-time quantitative TaqMan PCR in THP-1 or HepG2 cells; assay type: cell-based, human
Method: (§1) FIGS. 5a and 5b are graphs showing that activation of LXR increases mRNA expression of ABCA1 and CD14. THP-1 or HepG2 cells (5×10^5 cells/well) were plated in 6-well plates, and mixed with buffer (open bar) or 22(R)—OH cholesterol (10 μM, closed bar). After overnight incubation (˜16 hr) at 37° C., RNA samples were prepared from the cultured cells, and mRNAs for ABCA1 (a) and CD14 (b) were measured as described in Example 4, below. Results are presented as fold of control (untreated cells), and data are shown as the means±range of duplicate determinations.
(§2) Recent studies indicate that cholesterol efflux from cells is regulated by the transcription factor, LXR, which binds regulatory oxysterols and enhances expression of ABCA1 (see Costet, P., Luo, Y., Wang, N., and Tall, A. R. (2000) J. Biol. Chem. 275, 28240-28245; and Schwartz, K., Lawn, R. M., and Wade, D. P. (2000) Biochem. Biophys. Res. Commun. 274, 794-802.). If CD14 shared with ABCA1 a role in cholesterol efflux from cells, the expression of CD14 might be regulated in parallel with ABCA1 to help achieve cholesterol homeostasis. To test this, cells were incubated with 22(R)-hydroxycholesterol (22R—OH cholesterol), a specific ligand for LXR, and expression of ABCA1 and CD14 mRNA was measured by real time PCR. […] The dose dependence for induction of ABCA1 and CD14 was roughly similar with half-maximal induction observed at ˜10 μM (not shown). Induction of ABCA1 appeared slightly more rapid than that of CD14, but both reached a plateau level by 16 hr. The magnitude of the response of CD14 to 22R—OH cholesterol was less than that observed for ABCA1, but the increase was consistently seen with either of these two cell types. […]
(§3) Real-time quantitative TaqMan PCR analysis (Heid, C. A., Stevens, J., Livak, K. J., and Williams, P. M. (1996) Genome Res. 6, 986-994) was used to determine the relative levels of CD14 and ABCA1 mRNA. […] Sequence-specific amplification was detected with an increased fluorescent signal of FAM (reporter dye) during the amplification cycle. […]

[4] = test system: CD14 mRNA; experiment: CD14 mRNA expression by real-time quantitative TaqMan PCR in THP-1 or HepG2 cells; assay type: cell-based, human
Method: as §1, §2, §3

[5] = THP-1 monocytes or HepG2, 10 μM, overnight (~16 hr)

Compound | concentration at which cholesterol efflux is saturable ([1]; 30 min assays, THP-1 cells, no other cholesterol acceptor) [µg/mL] | concentration leading to near maximal cholesterol efflux ([1]; 24 hr duration, THP-1 cells) [µg/mL] | capacity to mediate cholesterol efflux relative to CD14 ([1]; 24 hr duration, comparison of dose-dependence curves) | cholesterol efflux by protein alone, kinetic analysis [2] | time to plateau level of ABCA1 induction [3] [h] | pEC50 ([3]; Homo sapiens, dose dependence (not shown), read-out: half-maximal induction of ABCA1) | ABCA1 mRNA expression [3, 5] | time to plateau level of CD14 induction [4] [h] | pEC50 ([4]; Homo sapiens, dose dependence (not shown), read-out: half-maximal induction of CD14) | CD14 mRNA expression [4, 5]
apo A-I: apolipoprotein A-I, major acceptor of cellular cholesterol | 10 to 20 | 10 | 10-20 fold | larger efflux | – | – | – | – | – | –
CC(C)CC[C@@H](O)[C@@H](C)[C@H]1CC[C@H]2[C@@H]3CC=C4C[C@@H](O)CC[C@]4(C)[C@H]3CC[C@]12C [22(R)-hydroxycholesterol] | – | – | – | – | ≤ 16 | ~5.00 | consistent rise | ≤ 16 | ~5.00 | consistent rise
